Source: patent US5635161A, “Aerosol drug formulations containing vegetable oils” (priority 1995, dated 1997)
Entries after “also recorded” stand apart in the source; their conditions may differ. Each block holds one compound with its values, some of them ahead of it.

Key:
[1] = Visual dispersion quality (physical stability) of MDI formulations in HFA-134a after 24 hours; format: physicochemical; set-up: key: Poor: Phase separation; top phase clear, bottom phase containing solids; Fair: Partial phase separation; cloudiness in the top phase; Good: Grainy appearance; no phase separation; Clear solution
Method: MDI formulations for performance testing were prepared in the following manner: For each test formulation, about 5 mL (or 7.4 grams) of glass beads were placed into a suitable glass aerosol container (vial), along with 100 mg to 250 mg drug and a vegetable oil in the amounts needed to produce the desired final concentrations. All vegetable oils used in the following examples were purchased from Sigma® Chemical Company (St. Louis, Mo., 63178). The vials were crimped shut with valves having delivery values (volumes per spray) of 50 μL, and then charged with 10 mL of HFA-134a propellant. The filled vials were then shaken for 24 hours at about 50 cycles/minute to mill and disperse the drug. […] The formulations were then used in the in vitro or in vivo studys described below.
A determination of the effect of vegetable oils on the physical stability of several MDI formulations prepared with HFA-134a was conducted as follows: A vegetable oil was combined either with (1) leuprolide acetate (Table 2a) or (2) 5-LO inhibitor #1 (Table 2b) in the amounts indicated and placed in appropriate transparent aerosol containers (vials). […] The dispersion quality in each preparation was evaluated visually after 24 hours using the following criteria: […]

[2] = Bioavailability / plasma pharmacokinetics after inhalation (MDI) versus i.v. in tracheostomized dogs; format: in vivo; details: dog
Method: All quantitative analyses for 5-LO inhibitor #1 formulations were performed by high pressure liquid chromatography (HPLC). The mobile phase composition was 30% v/v tetrahydrofuran in water with 0.128% w/v tetramethylammonium perchlorate and 0.075% v/v trifluoroacetic acid. A Regis Little Champ™ C-18, 4.6×50 mm column was used. The mobile phase flow rate was maintained at 1.0 milliliters/minute (mL/min). Detection wavelength was set at 282 nanometers (nm) and typical injection volumes were between 25 to 50 microliters (μL). Under these conditions, the standard curve for the parent drug was linear between the range of 3 to 75 micrograms/milliliter (μg/mL) (r^2 ≥0.990), with a run time of about 8 minutes.
Using a test preparation containing 25 mg/mL 5-LO inhibitor #1 and 2.5 mg/mL olive oil in HFC-134a propellant, pulmonary absorption and in vivo distribution (i.e. bioavailibility factors) were assessed in four tracheostomized dogs (Marshall Farms, N.Y.) weighing about 10 kilograms (kg) each. Four sprays, delivering 1.25 mg of active 5-LO inhibitor #1/spray, were delivered to the trachea of each dog, resulting in a total drug dose of about 0.5 mg/kg. Blood samples were collected at 0.25, 0.5, 1, 2, 3.5, 5, 7, 9, 12 and 24 hours after dosing and the plasma assayed for drug concentration using the HPLC method described in Example 1A above.

[3] = as above; details: dog, in vivo
[4] = in vivo, inhaled or intranasal, 0.5 mg/kg
[5] = in vivo, inhaled or intranasal, 0.5 mg/kg, Plasma concentration (5-LO Inhibitor Levels)
[6] = inhaled or intranasal, 0.5 mg/kg, Plasma concentration (5-LO Inhibitor Levels)
[7] = iv, 0.5 mg/kg, Plasma concentration (5-LO Inhibitor Levels)

Compound: CCNC(=O)[C@@H]1CCCN1C(=O)[C@H](CCCNC(=N)N)NC(=O)[C@H](CC(C)C)NC(=O)[C@@H](CC(C)C)NC(=O)[C@H](Cc1ccc(O)cc1)NC(=O)[C@H](CO)NC(=O)[C@H](Cc1c[nH]c2ccccc12)NC(=O)[C@H](Cc1c[nH]cn1)NC(=O)[C@@H]1CCC(=O)N1 [Leuprolide Acetate, leuprolide acetate, reference compound]
Dispersion Quality (measured after 24 Hours) ([1]; Table 2a, leuprolide acetate formulations (or excipients alone) in HFA-134a): Poor

Cmax [2, 4]: 150 ± 30 ng/mL
Tmax [2, 4]: 10.4 ± 9.23 h
Plasma concentration (5-LO Inhibitor Levels) ([2]; in vivo, inhaled or intranasal, 0.5 mg/kg, 1 h): 0.03 ± 0.02 µg/mL
concentration at 0.5 h [2, 5]: 10 ± 10 ng/mL
concentration at 1 h [2, 5]: 30 ng/mL
concentration at 7 h [2, 5]: 120 ± 70 ng/mL
concentration at 9 h [2, 5]: 90 ± 50 ng/mL
concentration at 24 h [2, 5]: 50 ± 60 ng/mL
concentration at 12 h ([2]; in vivo, inhaled or intranasal, 0.5 mg/kg, drug levels maintained): ≥ 70 ng/mL
Dispersion Quality (measured after 24 Hours) ([1]; Table 2b, 5-LO inhibitor #1 formulations in HFA-134a): Poor
duration of drug absorption after dosing [3]: 6 to 8 h
AUC(0-t) at 24 h ([3]; inhaled or intranasal, 0.5 mg/kg): 1600 ± 400 ng·h/mL
bioavailability ([3]; inhaled or intranasal, 0.5 mg/kg, Bioavailability (absolute lung bioavailability versus i.v.)): ~64%
concentration at 2 h [3, 6]: 40 ± 30 ng/mL
concentration at 3.5 h [3, 6]: 90 ± 60 ng/mL
concentration at 5 h [3, 6]: 80 ± 60 ng/mL
concentration at 12 h [3, 6]: 70 ± 40 ng/mL
AUC(0-t) at 24 h ([3]; iv, 0.5 mg/kg): 5060 ± 1040 ng·h/mL
Plasma concentration (5-LO Inhibitor Levels) ([3]; iv, 0.5 mg/kg, 0 min): 0 µg/mL
Plasma concentration (5-LO Inhibitor Levels) ([3]; iv, 0.5 mg/kg, 0.25 h): 0.59 ± 0.05 µg/mL
Plasma concentration (5-LO Inhibitor Levels) ([3]; iv, 0.5 mg/kg, 12 h): 0.18 ± 0.06 µg/mL
concentration at 0.08 h [3, 7]: 630 ± 60 ng/mL
concentration at 0.25 h [3, 7]: ~600 ng/mL
concentration at 0.5 h [3, 7]: 600 ± 40 ng/mL
concentration at 1 h [3, 7]: 520 ± 40 ng/mL
concentration at 2 h [3, 7]: 480 ± 50 ng/mL
concentration at 4 h [3, 7]: 370 ± 60 ng/mL
concentration at 6 h [3, 7]: 300 ± 50 ng/mL
concentration at 8 h [3, 7]: 230 ± 50 ng/mL
concentration at 12 h [3, 7]: ~200 ng/mL
concentration at 24 h [3, 7]: 70 ± 20 ng/mL
Compound: CC(C#Cc1ccc(Cc2ccc(F)cc2)s1)N(O)C(N)=O (stereo not drawn) [5-LO inhibitor #1, N-[3-[5-(4-fluorophenylmethyl)-2-thienyl]-1-methyl-2-propynyl]-N-hydroxyurea]
onset and absorption from the lungs (in words) ([2]; inhalation formulation): fast onset of drug absorption; also recorded: rapid onset and prolonged absorption of drug from the lungs
